In patent US20200078468A1, “NEUROTENSIN RECEPTOR BINDING CONJUGATES AND FORMULATIONS THEREOF” (priority 2016, published 2020):

What was measured:
[1] = biological target: T1, human NTSR1 (Homo sapiens, UniProt P30989); assay: radioligand-receptor binding assay, [125I] labeled neurotensin (Eurofins Panlabs); settings: [125I] neurotensin 0.02 nM, membranes from NTSR1 expressing HEK-293 cells, 45 minute incubation, Cheng and Prusoff; read-out: NTSR1 binding Ki
T1 construct: host or cells: HEK-293 cells (membrane preparations)
Description: Conjugates were assessed in an in vitro assay evaluating binding to NTSR1. A radioligand-receptor binding assay was conducted at Eurofins Panlabs (Taiwan) to determine the affinity of conjugates described herein to NTSR1. The assay measures binding of radiolabeled ligand, [^125I] labeled neurotensin, to human NTSR1 using membrane preparations from NTSR1 expressing HEK-293 cells (Human embryonic kidney cells 293). Membranes were incubated with radiolabeled neurotensin (0.02 nM) in the presence of conjugate/compound starting at a dose of either 100 nM, or 10 nM, using 3× serial dilutions to obtain a 6-pt curve. After a 45 minute incubation, membranes were filtered and washed 3× and counted to determine the remaining [^125I] neurotensin bound to the receptor. IC50 values were determined by a non-linear, least squares regression analysis using MathIQ™ (ID Business Solutions Ltd., UK). The Ki values were calculated using the equation of Cheng and Prusoff (Cheng and Prusoff, Biochem. Pharmacol. 22:3099-3108, 1973) using the observed IC50 of the tested conjugate/compound, the concentration of radioligand employed in the assay, and the historical values for the Kd of the ligand obtained at Eurofins.

[2] = tested on: SW48 (human colon cancer cells); assay: inhibition of SW48 cell proliferation (CellTiter Glo); assay type: cell-based; settings: NTSR1 targeted compound; 72 hrs; read-out: SW-48 proliferation IC50
Outline: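 Cells plated at 5,000/well and grown 24 hrs were exposed to conjugates for 72 hrs at 37° C, 5% CO2, in a ten-point three-fold series starting at 10 μM; vehicle was 0.01% DMSO. Proliferation was read by CellTiter Glo. % inhibition was taken relative to vehicle, with IC50 from four-parameter nonlinear regression.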

T1 sequence (P30989 whole entry): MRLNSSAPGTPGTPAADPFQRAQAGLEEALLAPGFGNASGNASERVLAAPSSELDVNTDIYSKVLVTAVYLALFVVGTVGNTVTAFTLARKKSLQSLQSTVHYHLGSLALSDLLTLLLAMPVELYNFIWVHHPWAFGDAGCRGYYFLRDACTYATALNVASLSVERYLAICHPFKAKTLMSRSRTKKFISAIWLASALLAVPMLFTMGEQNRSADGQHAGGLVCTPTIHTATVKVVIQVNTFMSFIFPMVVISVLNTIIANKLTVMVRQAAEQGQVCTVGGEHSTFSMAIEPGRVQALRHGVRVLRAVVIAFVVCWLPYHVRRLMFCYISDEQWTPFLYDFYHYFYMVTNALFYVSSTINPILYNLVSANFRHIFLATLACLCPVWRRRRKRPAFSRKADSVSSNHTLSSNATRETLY

| Compound | Ki [1] [nM] | IC50 [2] [nM] |
| --- | --- | --- |
| COc1cc2cc(c1Cl)N(C)C(=O)C[C@H](OC(=O)[C@H](C)N(C)C(=O)CCSC1CC(=O)N(CCCNC(=O)CNC(=O)[C@H](CC(C)C)NC(=O)[C@H](Cc3ccccc3)NC(=O)CNC(=O)CCCCCN3C(=O)CC(SC(C)(C)[C@H](NC(C)=O)C(=O)N4CCC[C@H]4C(=O)N[C@@H](CCCNC(=N)N)C(=O)N(C)[C@@H](CCCNC(=N)N)C(=O)N4CCC[C@H]4C(=O)N[C@@H](Cc4ccc(O)cc4)C(=O)N[C@H](C(=O)N[C@@H](CC(C)C)C(=O)O)C(C)(C)C)C3=O)C1=O)[C@]1(C)O[C@H]1[C@H](C)[C@@H]1C[C@@](O)(NC(=O)O1)[C@H](OC)/C=C/C=C(\C)C2 (some centres unmarked) [Compound 17] | 10.6 | 3.9 |
| COc1cc2cc(c1Cl)N(C)C(=O)C[C@H](OC(=O)[C@H](C)N(C)C(=O)CCSC1CC(=O)N(CCCNC(=O)CNC(=O)[C@H](CC(C)C)NC(=O)[C@H](Cc3ccccc3)NC(=O)CNC(=O)CCCCCN3C(=O)CC(SC(C)(C)[C@H](NC(C)=O)C(=O)N4CCC[C@H]4C(=O)N[C@@H](CCCNC(=N)N)C(=O)N(C)[C@@H](CCCNC(=N)N)C(=O)N4CCC[C@H]4C(=O)N[C@H](Cc4ccc(O)cc4)C(=O)N[C@H](C(=O)N[C@@H](CC(C)C)C(=O)O)C(C)(C)C)C3=O)C1=O)[C@]1(C)O[C@H]1[C@H](C)[C@@H]1C[C@@](O)(NC(=O)O1)[C@H](OC)/C=C/C=C(\C)C2 (some centres unmarked) [Compound 18] | > 100 | 36 |
| COc1cc2cc(c1Cl)N(C)C(=O)C[C@H](OC(=O)[C@H](C)N(C)C(=O)CCSC1CC(=O)N(CCCNC(=O)CNC(=O)[C@H](CC(C)C)NC(=O)[C@H](Cc3ccccc3)NC(=O)CNC(=O)CCCCCN3C(=O)CC(SC(C)(C)[C@H](NC(C)=O)C(=O)N4CCC[C@H]4C(=O)N[C@@H](CCCNC(=N)N)C(=O)N(C)[C@@H](CCCNC(=N)N)C(=O)N4CCC[C@H]4C(=O)N[C@@H](Cc4c[nH]c5ccccc45)C(=O)N[C@H](C(=O)N[C@@H](CC(C)C)C(=O)O)C(C)(C)C)C3=O)C1=O)[C@]1(C)O[C@H]1[C@H](C)[C@@H]1C[C@@](O)(NC(=O)O1)[C@H](OC)/C=C/C=C(\C)C2 (some centres unmarked) [Compound 19] | > 100 | 6.3 |
| COc1cc2cc(c1Cl)N(C)C(=O)C[C@H](OC(=O)[C@H](C)N(C)C(=O)CCSC1CC(=O)N(CCCNC(=O)CNC(=O)[C@H](CC(C)C)NC(=O)[C@H](Cc3ccccc3)NC(=O)CNC(=O)CCCCCN3C(=O)CC(SC(C)(C)[C@H](NC(C)=O)C(=O)N4CCC[C@H]4C(=O)N(C)[C@@H](CCCNC(=N)N)C(=O)N[C@@H](CCCNC(=N)N)C(=O)N4CCC[C@H]4C(=O)N[C@@H](Cc4ccc(O)cc4)C(=O)N[C@H](C(=O)N[C@@H](CC(C)C)C(=O)O)C(C)(C)C)C3=O)C1=O)[C@]1(C)O[C@H]1[C@H](C)[C@@H]1C[C@@](O)(NC(=O)O1)[C@H](OC)/C=C/C=C(\C)C2 (some centres unmarked) [Compound 20] | 0.93 | 6.8 |
| COc1cc2cc(c1Cl)N(C)C(=O)C[C@H](OC(=O)[C@H](C)N(C)C(=O)CCSC1CC(=O)N(CCCNC(=O)CNC(=O)[C@H](CC(C)C)NC(=O)[C@H](Cc3ccccc3)NC(=O)CNC(=O)CCCCCN3C(=O)CC(SC(C)(C)[C@H](NC(C)=O)C(=O)N4CCC[C@H]4C(=O)N[C@@H](CCCCN)C(=O)N[C@@H](CCCNC(=N)N)C(=O)N4CCC[C@H]4C(=O)N[C@@H](Cc4ccc(O)cc4)C(=O)N[C@H](C(=O)N[C@@H](CC(C)C)C(=O)O)C(C)(C)C)C3=O)C1=O)[C@]1(C)O[C@H]1[C@H](C)[C@@H]1C[C@@](O)(NC(=O)O1)[C@H](OC)/C=C/C=C(\C)C2 (some centres unmarked) [Compound 21] | 4.65 | 0.49 |
| COc1cc2cc(c1Cl)N(C)C(=O)C[C@H](OC(=O)[C@H](C)N(C)C(=O)CCSC1CC(=O)N(CCCNC(=O)CNC(=O)[C@H](CC(C)C)NC(=O)[C@H](Cc3ccccc3)NC(=O)CNC(=O)CCCCCN3C(=O)CC(SC(C)(C)[C@H](NC(C)=O)C(=O)N4CCC[C@H]4C(=O)N[C@@H](CCCCN)C(=O)N(C)[C@@H](CCCNC(=N)N)C(=O)N4CCC[C@H]4C(=O)N[C@@H](Cc4ccc(O)cc4)C(=O)N[C@H](C(=O)N[C@@H](CC(C)C)C(=O)O)C(C)(C)C)C3=O)C1=O)[C@]1(C)O[C@H]1[C@H](C)[C@@H]1C[C@@](O)(NC(=O)O1)[C@H](OC)/C=C/C=C(\C)C2 (some centres unmarked) [Compound 22] | 12.6 | 0.53 |
| COc1cc2cc(c1Cl)N(C)C(=O)C[C@H](OC(=O)[C@H](C)N(C)C(=O)CCSC1CC(=O)N(CCCNC(=O)CNC(=O)[C@H](CC(C)C)NC(=O)[C@H](Cc3ccccc3)NC(=O)CNC(=O)CCC(=O)NCCCC[C@H](NC(=O)c3ccc(C(C)=O)cc3)C(=O)N3CCC[C@H]3C(=O)N(C)[C@@H](CCCNC(=N)N)C(=O)N[C@@H](CCCNC(=N)N)C(=O)N3CCC[C@H]3C(=O)N[C@@H](Cc3ccc(O)cc3)C(=O)N[C@H](C(=O)N[C@@H](CC(C)C)C(=O)O)C(C)(C)C)C1=O)[C@]1(C)O[C@H]1[C@H](C)[C@@H]1C[C@@](O)(NC(=O)O1)[C@H](OC)/C=C/C=C(\C)C2 (some centres unmarked) [Compound 28] | 0.67 | 5.9 |
| COc1cc2cc(c1Cl)N(C)C(=O)C[C@H](OC(=O)[C@H](C)N(C)C(=O)CCSC1CC(=O)N(CCCNC(=O)CNC(=O)[C@H](CC(C)C)NC(=O)[C@H](Cc3ccccc3)NC(=O)CNC(=O)CCCCCN3C(=O)CC(SCCC(=O)NCCCC[C@H](NC(C)=O)C(=O)N4CCC[C@H]4C(=O)N[C@H](CCCNC(=N)N)C(=O)N[C@@H](CCCNC(=N)N)C(=O)N4CCC[C@H]4C(=O)N[C@@H](Cc4ccc(O)cc4)C(=O)N[C@H](C(=O)N[C@@H](CC(C)C)C(=O)O)C(C)(C)C)C3=O)C1=O)[C@]1(C)O[C@H]1[C@H](C)[C@@H]1C[C@@](O)(NC(=O)O1)[C@H](OC)/C=C/C=C(\C)C2 (some centres unmarked) [Compound 29] | 1.77 | 22 |
| COc1cc2cc(c1Cl)N(C)C(=O)C[C@H](OC(=O)[C@H](C)N(C)C(=O)CCSC1CC(=O)N(CCCNC(=O)CNC(=O)[C@H](CC(C)C)NC(=O)[C@H](Cc3ccccc3)NC(=O)CNC(=O)CCCCCN3C(=O)CC(SCCC(=O)NCCCC[C@H](NC(C)=O)C(=O)N4CCC[C@H]4C(=O)N[C@H](CCCNC(=N)N)C(=O)N[C@@H](CCN)C(=O)N4CCC[C@H]4C(=O)N[C@@H](Cc4ccc(O)cc4)C(=O)N[C@H](C(=O)N[C@@H](CC(C)C)C(=O)O)C(C)(C)C)C3=O)C1=O)[C@]1(C)O[C@H]1[C@H](C)[C@@H]1C[C@@](O)(NC(=O)O1)[C@H](OC)/C=C/C=C(\C)C2 (some centres unmarked) [Compound 30] | 4.23 | 42.7 |
| COc1cc2cc(c1Cl)N(C)C(=O)C[C@H](OC(=O)[C@H](C)N(C)C(=O)CCSC1CC(=O)N(CCCNC(=O)CNC(=O)[C@H](CC(C)C)NC(=O)[C@H](Cc3ccccc3)NC(=O)CNC(=O)CCCCCN3C(=O)CC(SCCC(=O)NCCCC[C@H](NC(C)=O)C(=O)N4CCC[C@H]4C(=O)N[C@@H](CCCNC(=N)N)C(=O)N[C@@H](CCN)C(=O)N4CCC[C@H]4C(=O)N[C@@H](Cc4ccc(O)cc4)C(=O)N[C@H](C(=O)N[C@@H](CC(C)C)C(=O)O)C(C)(C)C)C3=O)C1=O)[C@]1(C)O[C@H]1[C@H](C)[C@@H]1C[C@@](O)(NC(=O)O1)[C@H](OC)/C=C/C=C(\C)C2 (some centres unmarked) [Compound 31] | 2.39 | 75.6 |
| COc1cc2cc(c1Cl)N(C)C(=O)C[C@H](OC(=O)[C@H](C)N(C)C(=O)CCSC1CC(=O)N(CCCNC(=O)CNC(=O)[C@H](CC(C)C)NC(=O)[C@H](Cc3ccccc3)NC(=O)CNC(=O)CCCCCN3C(=O)CC(SCCC(=O)NCCCC[C@H](NC(C)=O)C(=O)N4CCC[C@H]4C(=O)N[C@@H](CCCCN)C(=O)N[C@@H](CCN)C(=O)N4CCC[C@H]4C(=O)N[C@@H](Cc4ccc(O)cc4)C(=O)N[C@H](C(=O)N[C@@H](CC(C)C)C(=O)O)C(C)(C)C)C3=O)C1=O)[C@]1(C)O[C@H]1[C@H](C)[C@@H]1C[C@@](O)(NC(=O)O1)[C@H](OC)/C=C/C=C(\C)C2 (some centres unmarked) [Compound 32] | 5.03 | 70.8 |
| COc1cc2cc(c1Cl)N(C)C(=O)C[C@H](OC(=O)[C@H](C)N(C)C(=O)CCSC1CC(=O)N(CCCNC(=O)CNC(=O)[C@H](CC(C)C)NC(=O)[C@H](Cc3ccccc3)NC(=O)CNC(=O)CCCCCN3C(=O)CC(SCCC(=O)NCCCC[C@H](NC(C)=O)C(=O)N4CCC[C@H]4C(=O)N[C@@H](CCCCN)C(=O)N[C@@H](CCCNC(=N)N)C(=O)N4CCC[C@H]4C(=O)N[C@@H](Cc4ccc(O)cc4)C(=O)N[C@H](C(=O)N[C@@H](CC(C)C)C(=O)O)C(C)(C)C)C3=O)C1=O)[C@]1(C)O[C@H]1[C@H](C)[C@@H]1C[C@@](O)(NC(=O)O1)[C@H](OC)/C=C/C=C(\C)C2 (some centres unmarked) [Compound 33] | 2.32 | 105 |
| COc1cc2cc(c1Cl)N(C)C(=O)C[C@H](OC(=O)[C@H](C)N(C)C(=O)CCSC1CC(=O)N(CCCNC(=O)CNC(=O)[C@H](CC(C)C)NC(=O)[C@H](Cc3ccccc3)NC(=O)CNC(=O)CCCCCN3C(=O)CC(SCCC(=O)NCCCC[C@H](NC(C)=O)C(=O)N4CCC[C@H]4C(=O)N[C@H](CCCN)C(=O)N[C@@H](CCN)C(=O)N4CCC[C@H]4C(=O)N[C@@H](Cc4ccc(O)cc4)C(=O)N[C@H](C(=O)N[C@@H](CC(C)C)C(=O)O)C(C)(C)C)C3=O)C1=O)[C@]1(C)O[C@H]1[C@H](C)[C@@H]1C[C@@](O)(NC(=O)O1)[C@H](OC)/C=C/C=C(\C)C2 (some centres unmarked) [Compound 34] | 6.07 | 70.2 |
